Measurements: patent US4637901A, “N-(alpha-haloacyl)-N-hydrocarbyl carbamoyl halides” (priority 1985, dated 1987)
≈ marks a conversion by molar mass, not a printed value.

Columns and labels:
Assay type in all cases: in vivo
[1] = tested on: certain mites and insects including the Bean Aphid, Southern Army Worm, Mexican Bean Beetle and house fly; assay: Pesticidal activity against certain mites and insects (overall comparison); settings: for activity in words (comparison as set forth in Table I): prior art derivatives compared with derivatives of the invention
Protocol: A comparision of an oxime derivative of the novel compounds of this invention was evaluated to determine its pesticidal activity against certain mites and insects including the Bean Aphid, Southern Army Worm, Mexican Bean Beetle and house fly. The oxime derivative was also compared with typical derivative of this oxime as disclosed in British Pat. No. 1,226,450.
(§1) Suspensions of the test compounds were prepared by dissolving one gram of compound in 50 milliliters of acetone in which had been dissolved 0.1 gram (10 percent of the weight of compound) of an alkylphenoxy polyethoxyethanol surfactant, as an emulsifying or dispersing agent. The resulting solution was mixed into 150 milliliters of water to give roughly 200 milliliters of a suspension containing the compound in finely divided form. The thus-prepared stock suspension contained 0.5 percent by weight of compound.
(§2) Certain of the test compounds were also prepared by dissolving 375 mg of compound in 7.5 ml of dimethylformamide. Fifteen ml of acetone containing 37.5 mg (10 percent of the weight of test compound) of an alkylphenoxy polyethoxyethanol surfactant, as a wetting/emulsifying/dispersing agent was added to the dimethylformamide solution. Fifty-two and a half ml of water was mixed into the dimethylformamide-acetone mixture to give roughly 75 ml of a suspension containing the compound in solution or in finely divided form. The thus prepared stock suspension contained 0.5 percent by weight of compound. The test concentrations in parts per million by weight employed in the tests described hereinbelow were obtained by appropriate dilutions of the stock suspension with water.

[2] = tested on: Bean Aphid (Aphis fabae Scop.); assay: Bean Aphid Foliage Spray Test; settings: foliar, potted dwarf nasturtium plants, 24 hour holding period, read-out: Biological activity (LD50 in ppm), Bean Aphid
Protocol: as §1
as §2, with “water. The test procedures were as follows:” for “water.”
Bean Aphid Foliage Spray Test
Adults and nymphal stages of the bean aphid (Aphis fabae Scop.) reared on potted dwarf nasturtrium plants at 68°-70° F. and 50±5 percent relative humidity, constituted the test insects. For testing purposes, the number of aphids per pot was standardized to 100-150 by trimming plants containing excess aphids. […]
The potted plants (one pot per compound tested) infested with 100-150 aphids were placed on a revolving turntable and sprayed with 100-110 milliliters of test compound formulation by use of a DeVilbiss spray gun set at 40 psig air pressure. […] Percent mortality was recorded for various concentration levels.

[3] = tested on: Southern Armyworm (Spodoptera eridania, (Cram.)) larvae; assay: Southern Armyworm Leaf Spray Bait Test; settings: 120 h, five days, read-out: Biological activity (LD50 in ppm), Southern Army Worm
Protocol: as §1
as §2, with “water. The test procedures were as follows:” for “water.”
Southern Armyworm Leaf Spray Bait Test
Larvae of the southern armyworm (Spodoptera eridania, (Cram.)), reared on Tendergreen bean plants at a temperature of 80°±5° F. and a relative humidity of 50±5 percent, constituted the test insects.
The test compounds were formulated by diluting the stock suspension with water to give a suspension containing 500 parts of test compound per million parts of final formulation. Potted Tendergreen bean plants of standard height and age were placed on a revolving turntable and sprayed with 100-110 milliliters of test compound formulation by use of a DeVilbiss spray gun set at 40 psig air pressure. This application, which lasted 25 seconds, was sufficient to wet plants to run-off. […] Percent mortality was recorded for various concentration levels.

[4] = tested on: House Fly (Musca domestica, L.); assay: Fly Bait Test; settings: 24 h, adult flies, sugar bait, twenty-four hours, read-out: Biological activity (LD50 in ppm), House Fly
Protocol: as §1
as §2, with “water. The test procedures were as follows:” for “water.”
Four to six day old adult house flies (Musca domestica, L.), reared according to the specifications of the Chemical Specialties Manufacturing Association (Blue Book, McNair-Dorland Co., N.Y. 1954; pages 243-244, 261) under controlled conditions of 80°±5° F. and 50±5 percent relative humidity, were the test insects. The flies were immobilized by anesthetizing with carbon dioxide and twenty-five immobilized individuals, males and females, were transferred to a cage consisting of a standard food strainer about five inches in diameter which was inverted over a wrapping-paper-covered surface. […]

[5] = tested on: Mexican Bean Beetle (Epilachna varivestis, Muls.) larvae; assay: Mexican Bean Beetle Leaf Spray Test; settings: 120 h, five days, read-out: Biological activity (LD50 in ppm), Mexican Bean Beetle
Protocol: as §1
as §2, with “water. The test procedures were as follows:” for “water.”
Mexican Bean Beetle Leaf Spray Test
Fourth instar larvae of the Mexican bean beetle (Epilachna varivestis, Muls.), reared on Tendergreen bean plants at a temperature of 80°±5° F. and 50±5 percent relative humidity, were the test insects.
For certain of the tests second instar larvae (weighing about 6 mg) of the Mexican bean beetle (Epilachna varvestis, Muls), reared on Seiva Pole lima bean plants at a temperature of 80°±5° F. and […] relative humidity, were the test insects.
The test compounds were formulated by diluting the stock suspension with water to give a suspension containing 500 parts of test compound per million parts of final formulation. […]

Compound | pesticidal properties (in words) ([1]; trimethyl amine salt of the N-haloacylcarbamate) | LC50 [2] [µg/mL] | LC50 [3] [µg/mL] | LC50 [4] [µg/mL] | LC50 [5] [µg/mL] | activity in words (comparison as set forth in Table I) [1]
COC(=O)Nc1ccc(OC(=O)N(C)C(=O)C[N+](C)(C)C)cc1C(C)C | excellent pesticidal properties | – | – | – | – | –
CSC(C)=NOC(=O)N(C)C(=O)CCl [(XII)] | – | 16 (≈ 67 µM) | 20 (≈ 83.8 µM) | 6 (≈ 25.1 µM) | 35 (≈ 147 µM) | –
CSC(C)=NOC(=O)N(C)C(=O)CCCCl [(XIVa)] | – | 37 (≈ 139 µM) | 310 (≈ 1160 µM) | 25 (≈ 93.7 µM) | 310 (≈ 1160 µM) | less active or inactive
CCC(=O)N(C)C(=O)ON=C(C)SC [(XIVb)] | – | 500 (≈ 2290 µM) | 60 (≈ 275 µM) | 500 (≈ 2290 µM) | 200 (≈ 916 µM) | less active or inactive
